{"source": "paper PMC11579209", "about": "“Population pharmacokinetics and exposure–response relationships of maribavir in transplant recipients with cytomegalovirus infection” (Journal of Pharmacokinetics and Pharmacodynamics, 2024)", "key": {"[1]": {"parameters": "method as in PMID 31532960, PMID 30329038", "conditions": "doses up to 1200 mg BID, cited from earlier work"}, "[2]": {"parameters": "method as in PMID 18316526", "conditions": "concomitant ketoconazole; cited from earlier work"}, "[3]": {"experiment": "Individual predicted steady-state PK parameters (400 mg BID) derived from the final PopPK model", "type": "in vivo", "conditions": "for Ctrough.ss, geometric mean (%CV) / AUC / Cmax / half-life: 400 mg BID steady state; for AUC / Cmax / half-life: human, plasma, oral, 400 mg; for AUC: read-out: AUC0–τ, geometric mean (%CV); for Cmax: read-out: Cmax.ss, geometric mean (%CV); for half-life: read-out: Half-life, geometric mean (%CV) (converted)", "protocol": "The final model was used to derive individual estimates of steady-state AUC over one dosing interval (AUC0–τ), Cmax.ss, and minimum maribavir plasma concentration (Ctrough.ss) for a 400 mg BID dosing regimen for all participants in the PopPK analysis. Individual estimates of Cmax.ss, Ctrough.ss, and AUC0–τ were obtained by prediction of the concentration–time profiles (concentrations predicted at 0, 1, 2, 3, 4, 6, 8 and 12 h) after a steady-state dose of 400 mg BID for respective individuals using their individual post hoc parameter values in the absence of strong CYP3A4 inducers or strong CYP3A4 inhibitors, and zero values for residual variability. The PK parameters AUC0–τ (linear up/log down trapezoidal rule), Cmax.ss, and Ctrough.ss were determined by non-compartmental methods.\nThe mean (percentage coefficient of variation [CV%]), geometric mean (GM) CV%, median, and percentiles for AUC0–τ, Cmax.ss, and Ctrough.ss were obtained overall and by health status (healthy individuals, all transplant recipients with CMV infection, and transplant recipients with refractory CMV infection in the phase 3 SOLSTICE study). For transplant patients with CMV infections, summary statistics were provided by covariates of interest including age (18 to < 65 years and ≥ 65 years; 18 to < 65 years, 65 to < 75 years, and 75 to < 85 years), sex, race, ethnicity, body mass index (BMI; underweight [< 18.5 kg/m^2], normal weight [18.5 to < 25 kg/m^2], overweight [25 to < 30 kg/m^2], obese [≥ 30 kg/m^2]), concurrent PPI, concurrent H2 inhibitors, transplant type, baseline plasma CMV DNA (low and intermediate/high), CMV category, hepatic impairment (none, Child-Pugh Class A, Child-Pugh Class B), presence of CMV mutations at baseline, and baseline use of antilymphocyte antibody. For the PPI and H2 inhibitor analyses, PK parameters were computed only for patients receiving the relevant concomitant medication for all their PK observations and for those who never received the relevant concomitant medication. For healthy individuals, summary statistics were provided by the following covariates of interest: age (≤ 65 years, > 65 years), sex, race, ethnicity, and BMI."}, "[4]": {"test_system": "Cytochrome P450 (CYP) 3A4", "parameters": "method as in PMID 12654667, doi:10.1016/j.bbmt.2018.12.600", "conditions": "formation of VP44469; cited from earlier work"}, "[5]": {"test_system": "plasma proteins", "parameters": "method as in earlier work", "conditions": "cited from earlier work"}, "[6]": {"conditions": "all transplant patients with CMV infection, n = 485"}, "[7]": {"conditions": "refractory CMV infection (SOLSTICE only), n = 253"}, "[8]": {"conditions": "transplant patients with CMV, 400 mg BID"}, "[9]": {"conditions": "transplant patients with CMV, n = 5 in older group"}}, "note": "Read-outs that look alike come from different tables or passages of the source."}
{"smiles": "CC(C)Nc1nc2cc(Cl)c(Cl)cc2n1[C@H]1O[C@@H](CO)[C@H](O)[C@@H]1O", "note": "[maribavir]", "values": [{"measurement": "Dose-related myelosuppression", "setting": "[1]", "result": "no evidence of dose-related myelosuppression"}, {"measurement": "Incidence of dysgeusia across doses", "setting": "[1]; transplant recipients with refractory CMV infection", "result": "similar"}, {"measurement": "Increase in maribavir AUC0-∞", "setting": "[2]", "result": 53, "unit": "%"}, {"measurement": "Increase in maribavir Cmax", "setting": "[2]", "result": 10, "unit": "%"}, {"measurement": "Ctrough.ss, geometric mean (%CV)", "setting": "[3]; all participants, n = 667", "result": "4.33 (89.7) μg/mL"}, {"measurement": "Ctrough.ss, geometric mean (%CV)", "setting": "[3]; [6]", "result": "4.90 (89.7) µg/mL"}, {"measurement": "Ctrough.ss, geometric mean (%CV)", "setting": "[3]; healthy volunteers, n = 133", "result": "2.89 (71.7) μg/mL"}, {"measurement": "Ctrough.ss, geometric mean (%CV)", "setting": "[3]; [7]", "result": "5.13 (93.0) µg/mL"}, {"measurement": "GM AUC0-τ higher in transplant patients with CMV infection than in healthy volunteers", "setting": "[3]; 400 mg BID, steady state", "result": 27, "unit": "%"}, {"measurement": "GM Cmax.ss higher in transplant patients with CMV infection than in healthy volunteers", "setting": "[3]; 400 mg BID, steady state", "result": 5, "unit": "%"}, {"measurement": "AUC", "setting": "[3]; all participants, n = 667", "result": 121, "unit": "µg·h/mL"}, {"measurement": "Cmax", "setting": "[3]; all participants, n = 667", "result": 17200, "unit": "ng/mL"}, {"measurement": "half-life", "setting": "[3]; all participants, n = 667", "result": 10.9, "unit": "h"}, {"measurement": "AUC", "setting": "[3]; [6]", "result": 128, "unit": "µg·h/mL"}, {"measurement": "Cmax", "setting": "[3]; [6]", "result": 17200, "unit": "ng/mL"}, {"measurement": "AUC", "setting": "[3]; healthy volunteers, n = 133", "result": 101, "unit": "µg·h/mL"}, {"measurement": "Cmax", "setting": "[3]; healthy volunteers, n = 133", "result": 16400, "unit": "ng/mL"}, {"measurement": "half-life", "setting": "[3]; healthy volunteers, n = 133", "result": 9.04, "unit": "h"}, {"measurement": "Cmax", "setting": "[3]; [7]", "result": 16900, "unit": "ng/mL"}, {"measurement": "AUC", "setting": "[3]; transplant patients with refractory CMV infection (SOLSTICE only), n = 253", "result": 129, "unit": "µg·h/mL"}, {"measurement": "GM AUC0-τ higher in underweight (BMI < 18.5 kg/m^2) than normal-weight patients", "setting": "[3]; [8]", "result": 24, "unit": "%"}, {"measurement": "GM AUC0τ higher in female than male patients", "setting": "[3]; [8]", "result": 19, "unit": "%"}, {"measurement": "GM Cmax.ss higher in female than male patients", "setting": "[3]; [8]", "result": 25, "unit": "%"}, {"measurement": "GM Cmax.ss higher in underweight (BMI < 18.5 kg/m^2) than normal-weight patients", "setting": "[3]; [8]", "result": 31, "unit": "%"}, {"measurement": "Maribavir exposure between patients with no, Child-Pugh class A, or Child-Pugh class B hepatic impairment", "setting": "[3]; [8]", "result": "similar"}, {"measurement": "Maribavir exposure with or without PPI", "setting": "[3]; [8]", "result": "similar"}, {"measurement": "Maribavir exposure with or without histamine H2 blockers", "setting": "[3]; [8]", "result": "similar"}, {"measurement": "AUC0-τ higher in patients aged 75 to < 85 years vs 18 to < 65 years", "setting": "[3]; [9]", "result": 54, "unit": "%"}, {"measurement": "Cmax.ss higher in patients aged 75 to < 85 years vs 18 to < 65 years", "setting": "[3]; [9]", "result": 38, "unit": "%"}, {"measurement": "Share of CYP-mediated metabolism by CYP3A4", "setting": "[4]", "result": "70–85%"}, {"measurement": "Bound to plasma proteins", "setting": "[5]", "result": "approximately 98%"}]}
